Laboratory results as given in patent publication US10065953B2, “Imidazo[1,2-A]pyridine derivatives for use as inhibitors of human immunodeficiency virus replication” (priority 2014, dated 2018).
Structures can show the parent of a compound that is named as a salt.

System: recombinant NL-Rluc virus
Experiment: Inhibition of HIV replication (NL-RLuc luciferase reporter virus in MT-2 cells)
Type: cell-based
Settings: Human immunodeficiency virus 1, MT2, 120 h, MT-2 cells infected with NL-RLuc virus, 5 days of incubation, luciferase readout; serum condition of the table not specified

Going from Cc1cc2nc(-c3cccc(-c4ccc(F)cc4)c3)cn2c(-c2ccc(F)cc2)c1[C@H](OC(C)(C)C)C(=O)O [Example 17, (S)-2-(tert-Butoxy)-2-(2-(4′-fluoro-[1,1′-biphenyl]-3-yl)-5-(4-fluorophenyl)-7-methylimidazo[1,2-a]pyridin-6-yl)acetic Acid] to Cc1ccc(-c2c([C@H](OC(C)(C)C)C(=O)O)c(C)cc3nc(-c4cccc(-c5ccc(F)cc5)c4)cn23)cc1 [Example 14, (S)-2-(tert-butoxy)-2-(2-(4′-fluoro-[1,1′-biphenyl]-3-yl)-7-methyl-5-(p-tolyl)imidazo[1,2-a]pyridin-6-yl)acetic Acid], the EC50 falls from 159 nM to 20 nM (8-fold). The second is the more potent here.

Cc1cc2nc(-c3cccc(-c4ccc(F)cc4F)c3)cn2c(N2CCC(C)(C)CC2)c1[C@H](OC(C)(C)C)C(=O)O [Example 5, (S)-2-(tert-Butoxy)-2-(2-(2′,4′-difluoro-[1,1′-biphenyl]-3-yl)-5-(4,4-dimethylpiperidin-1-yl)-7-methylimidazo[1,2-a]pyridin-6-yl)acetic Acid] and Cc1ccc(-c2cccc(-c3cn4c(N5CCC(C)(C)CC5)c([C@H](OC(C)(C)C)C(=O)O)c(C)cc4n3)c2)c(F)c1 [Example 6, (S)-2-(tert-Butoxy)-2-(5-(4,4-dimethylpiperidin-1-yl)-2-(2′-fluoro-4′-methyl-[1,1′-biphenyl]-3-yl)-7-methylimidazo[1,2-a]pyridin-6-yl)acetic Acid] are within 1.5-fold of each other in EC50: 29 nM for the first, 21 nM for the second.

Cc1ccc(-c2cccc(-c3cn4c(N5CCC(C)(C)CC5)c([C@H](OC(C)(C)C)C(=O)O)c(C)cc4n3)c2)cc1 [Example 2, (S)-2-(tert-butoxy)-2-(5-(4,4-dimethylpiperidin-1-yl)-7-methyl-2-(4′-methyl-[1,1′-biphenyl]-3-yl)imidazo[1,2-a]pyridin-6-yl)acetic Acid] and Cc1cc2nc(-c3cccc(-c4ccc(F)cc4)c3)cn2c(N2CCC(C)(C)CC2)c1[C@H](OC(C)(C)C)C(=O)O [Example 3, (S)-2-(tert-Butoxy)-2-(5-(4,4-dimethylpiperidin-1-yl)-2-(4′-fluoro-[1,1′-biphenyl]-3-yl)-7-methylimidazo[1,2-a]pyridin-6-yl)acetic Acid] are within 1.5-fold of each other in EC50: 32 nM for the first, 26 nM for the second.

Compared with Cc1cc2nc(-c3cccc(-c4cccc(F)c4)c3)cn2c(N2CCC(C)(C)CC2)c1[C@H](OC(C)(C)C)C(=O)O [Example 4, (S)-2-(tert-butoxy)-2-(5-(4,4-dimethylpiperidin-1-yl)-2-(3′-fluoro-[1,1′-biphenyl]-3-yl)-7-methylimidazo[1,2-a]pyridin-6-yl)acetic Acid], Cc1cc2nc(-c3cccc(-c4cccc(C#N)c4)c3)cn2c(N2CCC(C)(C)CC2)c1[C@H](OC(C)(C)C)C(=O)O [Example 7, (S)-2-(tert-Butoxy)-2-(2-(3′-cyano-[1,1′-biphenyl]-3-yl)-5-(4,4-dimethylpiperidin-1-yl)-7-methylimidazo[1,2-a]pyridin-6-yl)acetic Acid] is 3.5-fold lower in EC50: 21 nM for the first, 6 nM for the second.

Cc1cc2nc(-c3cccc(-c4cnn(C)c4)c3)cn2c(N2CCC(C)(C)CC2)c1[C@H](OC(C)(C)C)C(=O)O [Example 9, (S)-2-(tert-Butoxy)-2-(5-(4,4-dimethylpiperidin-1-yl)-7-methyl-2-(3-(1-methyl-1H-pyrazol-4-yl)phenyl)imidazo[1,2-a]pyridin-6-yl)acetic Acid] and Cc1cc(-c2cccc(-c3cn4c(N5CCC(C)(C)CC5)c([C@H](OC(C)(C)C)C(=O)O)c(C)cc4n3)c2)n(C)n1 [Example 10, (S)-2-(tert-Butoxy)-2-(2-(3-(1,3-dimethyl-1H-pyrazol-5-yl)phenyl)-5-(4,4-dimethylpiperidin-1-yl)-7-methylimidazo[1,2-a]pyridin-6-yl)acetic Acid] are within 1.5-fold of each other in EC50: 6 nM for the first, 7 nM for the second.

Compared with Cc1cc2nc(-c3cccc(-c4cnn(Cc5ccccc5)c4)c3)cn2c(N2CCC(C)(C)CC2)c1[C@H](OC(C)(C)C)C(=O)O [Example 8, (S)-2-(2-(3-(1-Benzyl-1H-pyrazol-4-yl)phenyl)-5-(4,4-dimethylpiperidin-1-yl)-7-methylimidazo[1,2-a]pyridin-6-yl)-2-(tert-butoxy)acetic Acid], Cc1cc2nc(-c3cccc(-c4ccccc4)c3)cn2c(N2CCC(C)(C)CC2)c1[C@H](OC(C)(C)C)C(=O)O [Example 1, (S)-2-(2-([1,1′-Biphenyl]-3-yl)-5-(4,4-dimethylpiperidin-1-yl)-7-methylimidazo[1,2-a]pyridin-6-yl)-2-(tert-butoxy)acetic Acid] is 2.3-fold higher in EC50: 22 nM for the first, 51 nM for the second.

Compared with Cc1cc2nc(-c3cccc(-c4cc(C(F)(F)F)nn4C)c3)cn2c(N2CCC(C)(C)CC2)c1[C@H](OC(C)(C)C)C(=O)O [Example 11, (S)-2-(tert-Butoxy)-2-(5-(4,4-dimethylpiperidin-1-yl)-7-methyl-2-(3-(1-methyl-3-(trifluoromethyl)-1H-pyrazol-5-yl)phenyl)imidazo[1,2-a]pyridin-6-yl)acetic Acid], Cc1cc2nc(-c3cccc(-c4ccc(F)cc4)c3)cn2c(-c2ccc3c(c2)C(C)(C)CCO3)c1[C@H](OC(C)(C)C)C(=O)O [Example 19, (S)-2-(tert-Butoxy)-2-(5-(4,4-dimethylchroman-6-yl)-2-(4′-fluoro-[1,1′-biphenyl]-3-yl)-7-methylimidazo[1,2-a]pyridin-6-yl)acetic Acid] is 4.5-fold higher in EC50: 21 nM for the first, 95 nM for the second. The first is the more potent here.

For Cc1cc2nc(-c3cccc(-c4ccc(F)cc4)c3)cn2c(-c2ccc3c(c2)CCCO3)c1[C@H](OC(C)(C)C)C(=O)O [Example 18, (S)-2-(tert-Butoxy)-2-(5-(chroman-6-yl)-2-(4′-fluoro-[1,1′-biphenyl]-3-yl)-7-methylimidazo[1,2-a]pyridin-6-yl)acetic Acid], the EC50 was 7 nM.

Same assay, conditions: MT-2 cells infected with NL-RLuc virus, 5 days of incubation, luciferase readout; serum condition of the table not specified

Compared with Cc1cc2nc(-c3cccc(-c4ccc(F)cc4)c3)cn2c(-c2cc(F)c3c(c2C)CCCO3)c1[C@H](OC(C)(C)C)C(=O)O [Example 16, (2S)-2-(tert-Butoxy)-2-(5-(8-fluoro-5-methylchroman-6-yl)-2-(4′-fluoro-[1,1′-biphenyl]-3-yl)-7-methylimidazo[1,2-a]pyridin-6-yl)acetic Acid], Cc1cc2nc(-c3cccc(-c4ccc(F)cc4)c3)cn2c(-c2ccc3c4c(ccnc24)CCO3)c1[C@H](OC(C)(C)C)C(=O)O [Example 12, (2S)-2-(tert-Butoxy)-2-(5-(2,3-dihydropyrano[4,3,2-de]quinolin-7-yl)-2-(4′-fluoro-[1,1′-biphenyl]-3-yl)-7-methylimidazo[1,2-a]pyridin-6-yl)acetic Acid.TFA] is 4.8-fold higher in EC50: 4 nM for the first, 19 nM for the second.

First: Cc1cc2nc(-c3cccc(-c4ccc(F)cc4)c3)cn2c(-c2ccc3c4c(ccnc24)CCO3)c1[C@H](OC(C)(C)C)C(=O)O [Example 13, (2S)-2-(tert-Butoxy)-2-(5-(2,3-dihydropyrano[4,3,2-de]quinolin-7-yl)-2-(4′-fluoro-[1,1′-biphenyl]-3-yl)-7-methylimidazo[1,2-a]pyridin-6-yl)acetic Acid.TFA]
Second: Cc1cc2nc(-c3cccc(-c4ccc(F)cc4)c3)cn2c(-c2cc(F)c3c(c2C)CCCO3)c1[C@H](OC(C)(C)C)C(=O)O [Example 15, (2S)-2-(tert-Butoxy)-2-(5-(8-fluoro-5-methylchroman-6-yl)-2-(4′-fluoro-[1,1′-biphenyl]-3-yl)-7-methylimidazo[1,2-a]pyridin-6-yl)acetic Acid]
The EC50 of the first is 2.3-fold higher: 398 nM for the first, 175 nM for the second.
